Laboratory results published in US6541423B1, “4-(3′,4′-heterocyclyl benzoyl) pyrazoles as herbicidal agents” (BASF Aktiengesellschaft, priority 1999, dated 2003).

Assays:
CHEAL = experiment: greenhouse post-emergence herbicidal test; assay type: in vivo, lambsquarters (goosefoot)
Source text: (§1) The culture containers used were plastic flowerpots containing loamy sand with approximately 3.0% of humus as substrate. The seeds of the test plants were sown separately for each species. For the post-emergence treatment, the test plants were first grown to a plant height of from 3 to 15 cm, depending on the plant habit, and only then treated with the active ingredients which had been suspended or emulsified in water. To this end, the test plants were either sown directly and grown in the same containers, or they were first grown separately as seedlings and transplanted into the test containers a few days prior to treatment. […] Depending on the species, the plants were kept at from 10 to 25° C., or 20-35° C., respectively. The test period extended over 2 to 4 weeks. During this time, the plants were tended, and their response to the individual treatments was evaluated. Evaluation was carried out using a scale of from 0 to 100. 100 means no emergence of the plants, or complete destruction of at least the aerial parts, and 0 means no damage, or normal course of growth. [table]

POLPE = experiment: greenhouse post-emergence herbicidal test; assay type: in vivo, ladysthumb
Source text: as §1

GALAP = experiment: greenhouse post-emergence herbicidal test; assay type: in vivo, catchweed bedstraw; details: application rates 0.5 and 0.25 kg/ha (a.s.)
Source text: The culture containers used were plastic flowerpots containing loamy sand with approximately 3.0% of humus as substrate. The seeds of the test plants were sown separately for each species. For the post-emergence treatment, the test plants were first grown to a plant height of from 3 to 15 cm, depending on the plant habit, and only then treated with the active ingredients which had been suspended or emulsified in water. To this end, the test plants were either sown directly and grown in the same containers, or they were first grown separately as seedlings and transplanted into the test containers a few days prior to treatment. The rate of application for the post-emergence treatment was 0.5 or 0.25 kg of a.s. (active. substance)/ha. Depending on the species, the plants were kept at from 10 to 25° C., or 20-35° C., respectively. The test period extended over 2 to 4 weeks. During this time, the plants were tended, and their response to the individual treatments was evaluated. Evaluation was carried out using a scale of from 0 to 100. 100 means no emergence of the plants, or complete destruction of at least the aerial parts, and 0 means no damage, or normal course of growth. [table]

SOLNI = experiment: greenhouse post-emergence herbicidal test; assay type: in vivo, black nightshade
Source text: as §1

AVEFA = experiment: greenhouse post-emergence herbicidal test; assay type: in vivo, wild oats
Source text: as §1

LAMAM = experiment: greenhouse post-emergence herbicidal test; assay type: in vivo, henbit
Source text: as §1

PAPRH = experiment: greenhouse post-emergence herbicidal test; assay type: in vivo, corn poppy
Source text: as §1

THLAR = experiment: greenhouse post-emergence herbicidal test; assay type: in vivo, fanweed
Source text: as §1

STEME = experiment: greenhouse post-emergence herbicidal test; assay type: in vivo, common chickweed
Source text: as §1

wheat = experiment: greenhouse post-emergence test, crop selectivity; assay type: in vivo, spring wheat; details: application rates 0.125 and 0.0625 kg/ha
Source text: as §1

MYOAR = experiment: greenhouse post-emergence herbicidal test; assay type: in vivo, forget-me-not
Source text: as §1

EPHHL = experiment: greenhouse post-emergence herbicidal test; assay type: in vivo, spurge
Source text: as §1

GASPA = experiment: greenhouse post-emergence herbicidal test; assay type: in vivo, smallflower; details: application rates 0.125 and 0.0625 kg/ha
Source text: as §1

AMARE = experiment: greenhouse post-emergence herbicidal test; assay type: in vivo, redroot pigweed
Source text: as §1

ECHCG = experiment: greenhouse post-emergence herbicidal test; assay type: in vivo, barnyard grass
Source text: as §1

[1] = application rates 0.5 and 0.25 kg/ha (a.s.)
[2] = application rates 0.25 and 0.125 kg/ha
[3] = application rates 0.125 and 0.0625 kg/ha
[4] = application rates 0.5 and 0.25 kg/ha

SMILES	herbicidal action against LAMAM (LAMAM; [2])	herbicidal action against PAPRH (PAPRH; [2])	herbicidal action against CHEAL (CHEAL; [2])	herbicidal action against THLAR (THLAR; [2])	herbicidal action against AMARE (AMARE; [2])	herbicidal action against POLPE (POLPE; [2])	further results
Cc1c(C(=O)c2cnn(C)c2O)ccc2scnc12 [Example 1, 4-[4′-Methylbenzothiazol-5′-ylcarbonyl]-5-hydroxy-1-methylpyrazole]							melting point: 149 to 150 °C; herbicidal action against CHEAL (CHEAL; [1]): very good herbicidal action; herbicidal action against POLPE (POLPE; [1]): very good herbicidal action; herbicidal action against GALAP (GALAP): very good herbicidal action; herbicidal action against SOLNI (SOLNI; [1]): very good herbicidal action; herbicidal action against AVEFA (AVEFA; [1]): very good herbicidal action
Cc1c(C(=O)c2cnn(C(C)C)c2O)ccc2scnc12 [Example 12, 4-(4′-methylbenzothiazol-5′-ylcarbonyl)-5-hydroxy-1-isopropylpyrazole]	very good herbicidal action	very good herbicidal action	very good herbicidal action	very good herbicidal action			herbicidal action against STEME (STEME; [2]): very good herbicidal action
Cc1c(C(=O)c2cnn(C)c2OCc2ccccc2)ccc2scnc12 [Example 13, 4-(4′-methylbenzothiazol-5′-ylcarbonyl)-5-benzyloxy-1-methylpyrazole]							selectivity in wheat (wheat): selectivity in wheat; herbicidal action against MYOAR (MYOAR; [3]): very good herbicidal action; herbicidal action against PAPRH (PAPRH; [3]): very good herbicidal action; herbicidal action against CHEAL (CHEAL; [3]): very good herbicidal action; herbicidal action against EPHHL (EPHHL; [3]): very good herbicidal action; herbicidal action against SOLNI (SOLNI; [3]): very good herbicidal action
Cc1nc2c(C)c(C(=O)c3cnn(C)c3O)ccc2s1 [Example 14, 4-(2′,4′-dimethylbenzothiazol-5′-ylcarbonyl)-5-hydroxy-1-methylpyrazole]							herbicidal action against LAMAM (LAMAM; [3]): very good herbicidal action; herbicidal action against THLAR (THLAR; [3]): very good herbicidal action; herbicidal action against STEME (STEME; [3]): very good herbicidal action; herbicidal action against GASPA (GASPA): very good herbicidal action
Cc1c(C(=O)c2cnn(C)c2OC(=O)c2ccccc2)ccc2scnc12 [Example 15, 4-(4′-methylbenzothiazol-5′-ylcarbonyl)-5-benzoyloxy-1-methylpyrazole]			very good herbicidal action		very good herbicidal action	very good herbicidal action	herbicidal action against ECHCG (ECHCG; [2]): very good herbicidal action; herbicidal action against AVEFA (AVEFA; [2]): very good herbicidal action
Cc1c(C(=O)c2cnn(C)c2OC(=O)c2cccc(F)c2)ccc2scnc12 [Example 16, 4-(4′-methylbenzothiazol-5′-ylcarbonyl)-5-(3″-fluorobenzoyl)oxy-1-methylpyrazole]							herbicidal action against CHEAL (CHEAL; [1]): very good herbicidal action; herbicidal action against AMARE (AMARE; [4]): very good herbicidal action; herbicidal action against POLPE (POLPE; [1]): very good herbicidal action; herbicidal action against GALAP (GALAP): very good herbicidal action; herbicidal action against ECHCG (ECHCG; [4]): very good herbicidal action
Cc1c(C(=O)c2cnn(C)c2OC(=O)C2CC2)ccc2scnc12 [Example 18, 4-(4′-methylbenzothiazol-5′-ylcarbonyl)-5-cyclopropylcarbonyloxy-1-methylpyrazole]			very good herbicidal action		very good herbicidal action	very good herbicidal action	herbicidal action against ECHCG (ECHCG; [2]): very good herbicidal action; herbicidal action against AVEFA (AVEFA; [2]): very good herbicidal action
CCc1nc2c(C)c(C(=O)c3cnn(C)c3O)ccc2o1 [Example 30, 4-(2′-ethyl-4′-methylbenzoxazol-5′-ylcarbonyl)-5-hydroxy-1-methylpyrazole]	very good herbicidal action	very good herbicidal action	very good herbicidal action	very good herbicidal action		very good herbicidal action	
CCc1nc2c(C)c(C(=O)c3cnn(C(C)C)c3O)ccc2o1 [Example 31, 4-(2′-ethyl-4′-methylbenzoxazol-5′-ylcarbonyl)-5-hydroxy-1-isopropylpyrazole]	very good herbicidal action	very good herbicidal action	very good herbicidal action	very good herbicidal action	very good herbicidal action	very good herbicidal action	
Cc1nc2c(C)c(C(=O)c3cnn(C(C)C)c3O)ccc2s1 [Example 33, 4-(2′,4′-dimethylbenzothiazol-5′-ylcarbonyl)-5-hydroxy-1-isopropylpyrazole]	very good herbicidal action	very good herbicidal action	very good herbicidal action	very good herbicidal action	very good herbicidal action		herbicidal action against MYOAR (MYOAR; [2]): very good herbicidal action
COCc1nc2c(C)c(C(=O)c3cnn(C)c3O)ccc2s1 [Example 34, 4-(2′-methoxymethyl-4′-methylbenzothiazol-5′-ylcarbonyl)-5-hydroxy-1-methylpyrazole]	very good herbicidal action	very good herbicidal action	very good herbicidal action	very good herbicidal action			herbicidal action against STEME (STEME; [2]): very good herbicidal action
COCc1nc2c(C)c(C(=O)c3cnn(C(C)C)c3O)ccc2s1 [Example 36, 4-(2′-methoxymethyl-4′-methylbenzothiazol-5′-ylcarbonyl)-5-hydroxy-1-isopropylpyrazole]		very good herbicidal action	very good herbicidal action				herbicidal action against MYOAR (MYOAR; [2]): very good herbicidal action; herbicidal action against EPHHL (EPHHL; [2]): very good herbicidal action; herbicidal action against STEME (STEME; [2]): very good herbicidal action; herbicidal action against SOLNI (SOLNI; [2]): very good herbicidal action
